Measured values: ChEMBL document CHEMBL4038294, “Divergent synthesis of kinase inhibitor derivatives, leading to discovery of selective Gck inhibitors” (Bioorg Med Chem Lett, 2017)

Assays:
[1] = target: T1, Mitogen-activated protein kinase kinase kinase kinase 2 (Homo sapiens) (UniProt Q12851); assay: Inhibition of human wild type GCK (M1 to G318 residues) expressed in mammalian expression system at 1 uM by KINOMEScan assay relative to control
T1 sequence (whole entry): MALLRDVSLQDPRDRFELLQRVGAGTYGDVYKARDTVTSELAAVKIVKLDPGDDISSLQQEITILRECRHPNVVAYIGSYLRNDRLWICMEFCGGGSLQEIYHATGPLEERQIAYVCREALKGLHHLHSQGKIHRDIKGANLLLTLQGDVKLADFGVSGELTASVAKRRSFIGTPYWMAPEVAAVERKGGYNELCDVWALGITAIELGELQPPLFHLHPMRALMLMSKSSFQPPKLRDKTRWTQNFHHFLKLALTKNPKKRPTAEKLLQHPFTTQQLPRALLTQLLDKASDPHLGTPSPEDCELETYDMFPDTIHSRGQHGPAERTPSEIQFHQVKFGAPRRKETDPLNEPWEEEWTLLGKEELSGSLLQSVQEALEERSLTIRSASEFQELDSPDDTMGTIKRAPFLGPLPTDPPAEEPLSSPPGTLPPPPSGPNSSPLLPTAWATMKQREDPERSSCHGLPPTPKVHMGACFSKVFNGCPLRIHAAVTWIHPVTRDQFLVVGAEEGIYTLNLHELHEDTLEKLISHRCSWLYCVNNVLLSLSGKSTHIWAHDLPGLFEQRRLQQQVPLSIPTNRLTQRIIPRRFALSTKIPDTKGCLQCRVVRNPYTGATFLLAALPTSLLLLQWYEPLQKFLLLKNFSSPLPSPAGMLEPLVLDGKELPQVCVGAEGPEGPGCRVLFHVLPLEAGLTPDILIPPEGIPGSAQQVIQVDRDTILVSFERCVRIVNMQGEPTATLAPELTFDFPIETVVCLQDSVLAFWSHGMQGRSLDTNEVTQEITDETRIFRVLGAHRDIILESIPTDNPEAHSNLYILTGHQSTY

[2] = target: Tyrosine-protein kinase SYK (Homo sapiens) (UniProt P43405); assay: Inhibition of human wild type partial length SYK (D354 to N635 residues) expressed in bacterial expression system at 1 uM by KINOMEScan assay relative to control
[3] = target: T2, Mitogen-activated protein kinase kinase kinase kinase 2 (Homo sapiens, UniProt Q12851); assay: Binding affinity to human wild type GCK (M1 to G318 residues) expressed in mammalian expression system by KINOMEScan assay
T2 sequence (Q12851 whole entry): T1 sequence (whole entry)

SMILES | inhibition [1] | inhibition [2] | Kd [3]
CNC(=O)c1cccnc1Nc1nc(-c2cccc(OC)c2)cc2nccn12 | 0% | 1% | 
CNC(=O)c1cccnc1Nc1cc(-c2ccccc2)cc2[nH]ccc12 | 29% | 1% | 
COc1cc(OC)cc(-c2cc3nccn3c(Nc3ncccc3C(N)=O)n2)c1 | 100% | 80% | 
COc1ccc(-c2cccc(-c3cc4nccn4c(Nc4ncccc4C(N)=O)n3)c2)cc1 | 84% | 5% | 220 nM
CN(C)C(=O)c1cccnc1Nc1nc(-c2ccccc2)cc2nccn12 | 58% | 10% | 
O=C(NCc1ccccc1)c1cccnc1Nc1nc(-c2ccccc2)cc2nccn12 | 2% | 0% | 
CCC(C)NC(=O)c1cccnc1Nc1nc(-c2ccccc2)cc2nccn12 (stereo not given) | 29% | 1% | 
CCCCOc1ccc(-c2cc3nccn3c(Nc3ncccc3C(N)=O)n2)cc1 | 47% | 4% | 
COc1ccccc1-c1cc2nccn2c(Nc2ncccc2C(N)=O)n1 | 100% | 61% | 
CNC(=O)c1cccnc1Nc1nc(-c2ccccc2)cc2nccn12 | 24% | 30% | 
CNC(=O)c1cccnc1Nc1nc(-c2ccc(OC)cc2)cc2nccn12 | 1% | 0% | 
CCNC(=O)c1cccnc1Nc1nc(-c2ccccc2)cc2nccn12 | 20% | 19% | 
CNC(=O)c1cccnc1Nc1cc(-c2ccc(OC)cc2)cc2[nH]ccc12 | 2% | 0% | 
COc1ccc(-c2cc3nccn3c(Nc3ncccc3C(N)=O)n2)c(OC)c1 | 100% | 80% | 
COc1cccc(-c2cc3nccn3c(Nc3ncccc3C(N)=O)n2)c1 | 97.2% | 37% | 59 nM
CNC(=O)c1cccnc1Nc1nc(-c2ccc3c(c2)OCO3)cc2nccn12 | 1% | 9% | 
CCCCNC(=O)c1cccnc1Nc1nc(-c2ccccc2)cc2nccn12 | 8% | 8% | 
CNC(=O)c1cccnc1Nc1nc(-c2ccc(OC)c(OC)c2)cc2nccn12 | 0% | 0% | 

Next, values leading:

inhibition [1] | inhibition [2] | Kd [3] | SMILES
94.7% | 11% | 100 nM | Cc1ccccc1-c1cc2nccn2c(Nc2ncccc2C(N)=O)n1
99.5% | 73% |  | NC(=O)c1cccnc1Nc1nc(-c2ccccc2)cc2nccn12
94.3% | 24% | 49 nM | NC(=O)c1cccnc1Nc1nc(-c2ccc3c(c2)OCO3)cc2nccn12
0% | 0% |  | CC(C)NC(=O)c1cccnc1Nc1nc(-c2ccccc2)cc2nccn12
99.2% | 58% |  | Cc1ccc(-c2cc3nccn3c(Nc3ncccc3C(N)=O)n2)cc1
100% | 74% |  | Cc1cccc(-c2cc3nccn3c(Nc3ncccc3C(N)=O)n2)c1
99.1% | 59% |  | COc1ccc(-c2cc3nccn3c(Nc3ncccc3C(N)=O)n2)cc1
100% | 85% |  | COc1ccc(-c2cc3nccn3c(Nc3ncccc3C(N)=O)n2)cc1OC
16% | 5% |  | CCCNC(=O)c1cccnc1Nc1nc(-c2ccccc2)cc2nccn12
86% | 51% |  | CCCOc1ccc(-c2cc3nccn3c(Nc3ncccc3C(N)=O)n2)cc1
